Ends that are not written are not given here.
Assays:
B. cereus ACCC 04315 = type: cell-based, Bacillus cereus
Method: (§1) The minimum inhibitory concentrations (MICs) of purified antimicrobial peptides against St. aureus ACCC 10499, B. cereus ACCC 04315, and Sa. enterica ACCC 01996 were determined by the double dilution method. The indicator bacteria cultures were diluted to an OD600 of 0.5 respectively, of which 50 μL of them were added into the sterile 96-well plate, and then 50 μL antimicrobial peptide samples with different concentrations were mixed with each indicator bacterium at a 1:1 ratio. The experiment was performed in three parallel sets. After incubation at 37 °C for 12–18 h, the OD600 value was determined by an Automatic growth curve analyzer (Bioscreen C, Turku, Finland), and the minimum concentration of 100% inhibition of indicator bacteria growth was used as the minimum inhibitory concentration.

pepsin = experiment: Protease stability of antimicrobial peptides; type: in vitro ADME; conditions: mixed 1:1 with 1 mg/mL pepsin, water bath 37 °C 1 h, then boiling water bath 5 min; control without protease; read-out inhibition circles against St. aureus ACCC 10499
Method: (§2) Appropriate amounts of purified antimicrobial peptide samples were placed in a water bath at 40 °C, 60 °C, 80 °C, 90 °C, and 100 °C for 30 min and high-temperature autoclave sterilization at 121 °C for 15 min respectively, to carry out temperature sensitivity tests. St. aureus ACCC 10499 was used as an indicator bacterium, and untreated samples were used as controls, with three parallel groups for each sample to observe the change in antibacterial activity. Similarly, the pH of the same amount for the antimicrobial peptide samples was adjusted to 2~10 in intervals of 1, and the neutral pH was 7.0 as the control. The samples with a different pH were kept in a water bath at 37 °C for 30 min. St. aureus ACCC 10499 was used as an indicator bacterium to detect the resistance of the antimicrobial peptide to an acid and base. In addition, appropriate antimicrobial peptide samples were mixed with 1 mg/mL solution of protease K, trypsin, and pepsin at 1:1, and were kept in a water bath at 37 °C for 1 h, followed by a boiling water bath for 5 min to inactivate the enzymes. The samples without protease treatment were used as controls and the changes in antibacterial activity were observed.

trypsin = experiment: Protease stability of antimicrobial peptides; type: in vitro ADME; conditions: mixed 1:1 with 1 mg/mL trypsin, water bath 37 °C 1 h, then boiling water bath 5 min; control without protease; read-out inhibition circles against St. aureus ACCC 10499
Method: as §2

protease K = protease K (Parengyodontium album, UniProt P06873); experiment: Protease stability of antimicrobial peptides; type: in vitro ADME; conditions: mixed 1:1 with 1 mg/mL protease K, water bath 37 °C 1 h, then boiling water bath 5 min; control without protease; read-out inhibition circles against St. aureus ACCC 10499
protease K, sequence (P06873 106-384): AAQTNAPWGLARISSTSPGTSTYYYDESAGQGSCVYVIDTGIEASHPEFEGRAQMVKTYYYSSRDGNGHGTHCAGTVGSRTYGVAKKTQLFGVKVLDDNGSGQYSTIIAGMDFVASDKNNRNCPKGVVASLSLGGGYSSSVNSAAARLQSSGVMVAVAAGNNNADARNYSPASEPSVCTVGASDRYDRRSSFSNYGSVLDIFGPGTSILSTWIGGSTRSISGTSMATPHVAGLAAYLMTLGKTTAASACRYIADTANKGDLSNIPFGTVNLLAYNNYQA
Method: as §2

St. aureus ACCC 10499 = type: cell-based, Staphylococcus aureus
Method: as §1

Sa. enterica ACCC 01996 = experiment: MIC by double dilution method; type: cell-based, Salmonella enterica; conditions: 96-well plate, culture OD600 0.5 mixed 1:1 with peptide, 37 °C 12–18 h, OD600 read-out, minimum concentration of 100% growth inhibition, three parallel sets
Method: as §1

In the case of VFLENVLR [Peptide-I], the MIC (B. cereus ACCC 04315) is reported as 32 µg/mL, the “Antibacterial activity after treatment with pepsin” value (pepsin) is reported as “insensitive” and the “Antibacterial activity after treatment with trypsin” value (trypsin) is reported as “insensitive”. The “Antibacterial activity after treatment with protease K” value (protease K) was “insensitive”, the MIC (St. aureus ACCC 10499) was 64 µg/mL and the MIC (Sa. enterica ACCC 01996) was 8 µg/mL.

In the case of FSGSGSGTAFTLR [Peptide-II], the MIC (B. cereus ACCC 04315) is reported as 64 µg/mL, the “Antibacterial activity after treatment with pepsin” value (pepsin) is reported as “no significant effect” and the “Antibacterial activity after treatment with trypsin” value (trypsin) is reported as “no significant effect”. The “Antibacterial activity after treatment with protease K” value (protease K) was “significantly reduced”, the MIC (St. aureus ACCC 10499) was 16 µg/mL and the MIC (Sa. enterica ACCC 01996) was 16 µg/mL. The MIC (Sa. enterica ACCC 01996; listed as peptide-II) was 8 µg/mL.
